Measurements from US20240270740A1, “INHIBITORS OF CYCLIC GMP-AMP SYNTHASE AND USES THEREOF” (Ventus Therapeutics U.S., Inc., priority 2022, published 2024).

target: hcGAS (Homo sapiens, UniProt Q8N884); assay: hcGAS LCMS assay (direct measurement of cGAMP production); type: biochemical; settings: 0.5 nM hcGAS, 100 μM ATP, 100 μM GTP, 25 nM dsDNA, 4 h incubation
Procedure: cGAS catalyzes the cyclization of ATP and GTP to produce cGAMP, which is the activating ligand of STING. Human cGAS (hcGAS) inhibition can thus be quantified by measuring how much cGAMP is formed either indirectly, by monitoring ATP-depletion as in the hcGAS Kinase-Glo assay (as described below), or directly, such as using the hcGAS LCMS assay (as described below).
Compounds were tested for their h-cGAS inhibition activity using direct measurement of cGAMP production by LC/MS. Briefly, compounds were incubated with enzyme and substrates for 4 hours (see Table C), before the reaction was stopped with 3 volumes of 70/30 Acetonitrile/H2O mix containing 0.15 mM cGAMP-^13C10^5N5 as internal standard and mixed for […]. After centrifugation (3700 rpm, 10 min, 10° Celsius), […] of each reaction was collected and mixed to equal volume of Acetonitrile. Samples were then analyzed on Qexective (Column: XBridge BEH Amide Column, 130 Å, 3.5 μm, 3 mm×50 mm, Mobile phase A: 10 mM Ammonium acetate in 95/5% H2O/Acetonitrile (0.5% DMSO), Mobile phase B: Acetonitrile (0.5% DMSO).
The results of the assay, expressed as IC50 values, are reported in Table D with the following designations: A represents an IC50 value<0.005 μM; B represents an IC50 value≥0.005 μM and <0.02 μM, C represents an IC50 value≥0.02 μM and <0.06 μM; D represents an IC50 value≥0.06 and <0.2 μM; E represents an IC50 value≥0.2.

hcGAS, sequence (Q8N884 whole entry): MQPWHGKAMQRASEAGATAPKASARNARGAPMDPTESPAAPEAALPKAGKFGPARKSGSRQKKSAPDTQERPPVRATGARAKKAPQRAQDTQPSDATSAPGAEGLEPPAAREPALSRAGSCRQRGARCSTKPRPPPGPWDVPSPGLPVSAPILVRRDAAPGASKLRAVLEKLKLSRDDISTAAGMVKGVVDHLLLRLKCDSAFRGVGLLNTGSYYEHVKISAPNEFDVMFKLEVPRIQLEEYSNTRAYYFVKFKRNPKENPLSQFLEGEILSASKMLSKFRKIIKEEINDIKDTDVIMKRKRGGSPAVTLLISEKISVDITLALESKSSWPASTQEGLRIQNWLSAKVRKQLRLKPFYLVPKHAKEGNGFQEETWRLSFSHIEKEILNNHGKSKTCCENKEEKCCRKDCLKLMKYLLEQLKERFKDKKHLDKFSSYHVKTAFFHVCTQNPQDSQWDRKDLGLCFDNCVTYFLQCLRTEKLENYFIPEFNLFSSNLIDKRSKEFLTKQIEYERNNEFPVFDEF

SMILES	IC50 [nM]
COc1c(N[C@@H]2CC[C@@H]2O)cc(C(=O)Nc2nnc(-c3c(Cl)ccn3C)s2)oc1=O (single isomer, unassigned) [Compound 54]	< 5
COCC(C)(C)COc1c(NC23CC(C2)C3)cc(C(=O)Nc2nnc(-n3nccc3C)s2)oc1=O [Compound 149, 4-(bicyclo[1,1,1]pentan-1-ylamino)-(3-methoxy-2,2-dimethylpropoxy)-N-(5-(5-methyl-1H-pyrazol-1-yl)-1,3,4-thiadiazol-2-yl)-2-oxo-2H-pyran-6-carboxamide]	5 to 20
COc1c(N[C@H]2CCCC[C@@H]2OC)cc(C(=O)Nc2nnc(-n3nccc3C)s2)oc1=O [Compound 70, 3-methoxy-4-(((1S,2S)-2-methoxycyclohexyl)amino)-N-(5-(5-methyl-1H-pyrazol-1-yl)-1,3,4-thiadiazol-2-yl)-2-oxo-2H-pyran-6-carboxamide]	5 to 20
COc1c(N[C@@H]2CCC[C@@H]2OC)cc(C(=O)Nc2nnc(-c3c(Cl)ccn3C)s2)oc1=O (single isomer, unassigned) [48*]	5 to 20
COc1c(N[C@@H]2c3ccccc3C[C@@H]2OC)cc(C(=O)Nc2nnc(-n3nccc3C)s2)oc1=O (racemic) [Rac-164, 3-methoxy-4-(((1R,2S)-2-methoxy-2,3-dihydro-1H-inden-1-yl)amino)-N-(5-(5-methyl-1H-pyrazol-1-yl)-1,3,4-thiadiazol-2-yl)-2-oxo-2H-pyran-6-carboxamide]	5 to 20
COC[C@H](Nc1cc(C(=O)Nc2nnc(-n3nccc3C)s2)oc(=O)c1OC)C1CC1 (single isomer, unassigned) [Compound 21*]	5 to 20
COc1c(N[C@H]2CC[C@H]2OC)cc(C(=O)Nc2nnc(-c3c(Cl)ccn3C)s2)oc1=O (single isomer, unassigned) [Compound 133*]	5 to 20
COc1c(N[C@@H]2Cc3ccccc3[C@@H]2O)cc(C(=O)Nc2nnc(-n3nccc3C)s2)oc1=O (racemic) [Rac-81, 4-(((1S,2R)-1-hydroxy-2,3-dihydro-1H-inden-2-yl)amino)-3-methoxy-N-(5-(5-methyl-1H-pyrazol-1-yl)-1,3,4-thiadiazol-2-yl)-2-oxo-2H-pyran-6-carboxamide]	≥ 200
Cc1ccnn1-c1nnc(NC(=O)c2cc3c(c(=O)o2)OCCN3[C@@H]2CCC[C@@H]2C#N)s1 [Compound 223, 1-((1R,2S)-2-cyanocyclopentyl)-N-(5-(5-methyl-1H-pyrazol-1-yl)-1,3,4-thiadiazol-2-yl)-5-oxo-1,2,3,5-tetrahydropyrano[3,4-b][1,4]oxazine-7-carboxamide]	5 to 20
COc1c(NC2CCCC2(C)O)cc(C(=O)Nc2nnc(-n3nccc3C)s2)oc1=O (racemic) [Rac-167, 4-((2-hydroxy-2-methylcyclopentyl)amino)-3-methoxy-N-(5-(5-methyl-1H-pyrazol-1-yl)-1,3,4-thiadiazol-2-yl)-2-oxo-2H-pyran-6-carboxamide]	< 5
COc1c(N[C@H]2CCC[C@H]2O)cc(C(=O)Nc2nnc(-n3nccc3C)s2)oc1=O [Compound 5, 4-(((1S,2R)-2-hydroxycyclopentyl)amino)-3-methoxy-N-(5-(5-methyl-1H-pyrazol-1-yl)-1,3,4-thiadiazol-2-yl)-2-oxo-2H-pyran-6-carboxamide]	5 to 20
COCCOc1c(N[C@@H]2CCC[C@@H]2O)cc(C(=O)Nc2nnc(-c3c(Cl)ccn3C)s2)oc1=O [Compound 86, N-(5-(3-chloro-1-methyl-1H-pyrrol-2-yl)-1,3,4-thiadiazol-2-yl)-4-(((1R,2S)-2-hydroxycyclopentyl)amino)-3-(2-methoxyethoxy)-2-oxo-2H-pyran-6-carboxamide]	< 5
COC[C@H](Cc1ccccc1)Nc1cc(C(=O)Nc2nnc(-n3nccc3C)s2)oc(=O)c1OC [Compound 165, (S)-3-methoxy-4-((1-methoxy-3-phenylpropan-2-yl)amino)-N-(5-(5-methyl-1H-pyrazol-1-yl)-1,3,4-thiadiazol-2-yl)-2-oxo-2H-pyran-6-carboxamide]	60 to 200
COc1c(N2CCC[C@H]2CC#N)cc(C(=O)Nc2nnc(-n3nccc3C)s2)oc1=O [Compound 175, (S)-4-(2-(cyanomethyl)pyrrolidin-1-yl)-3-methoxy-N-(5-(5-methyl-1H-pyrazol-1-yl)-1,3,4-thiadiazol-2-yl)-2-oxo-2H-pyran-6-carboxamide]	5 to 20
COc1c(N[C@@H]2COC[C@@H]2OC)cc(C(=O)Nc2nnc(-n3nccc3C)s2)oc1=O [Compound 162, 5-methoxy-4-{[(3R,4R)-4-methoxyoxolan-3-yl]amino}-N-[5-(5-methylpyrazol-1-yl)-1,3,4-thiadiazol-2-yl]-6-oxopyran-2-carboxamide]	5 to 20
COc1c(N[C@H]2CC[C@H]2OC)cc(C(=O)Nc2nnc(-n3nccc3C)s2)oc1=O (single isomer, unassigned) [123*]	5 to 20
CC[C@@H](COC)Nc1cc(C(=O)Nc2nnc(-n3nccc3C)s2)oc(=O)c1OC (single isomer, unassigned) [192*]	5 to 20
COCCN(CCO)c1cc(C(=O)Nc2nnc(-n3nccc3C)s2)oc(=O)c1OC (single isomer, unassigned) [Compound 157, 4-((2-hydroxyethyl)(2-methoxyethyl)amino)-3-methoxy-N-(5-(5-methyl-1H-pyrazol-1-yl)-1,3,4-thiadiazol-2-yl)-2-oxo-2H-pyran-6-carboxamide]	≥ 200
COC[C@H]1CCC[C@H]1Nc1cc(C(=O)Nc2nnc(-n3nccc3C)s2)oc(=O)c1OC (single isomer, unassigned) [Compound 80*]	≥ 200
COc1c(NC[C@H]2CCCO2)cc(C(=O)Nc2nnc(-n3nccc3C)s2)oc1=O [Compound 20, (R)-3-methoxy-N-(5-(5-methyl-1H-pyrazol-1-yl)-1,3,4-thiadiazol-2-yl)-2-oxo-4-(((tetrahydrofuran-2-yl)methyl)amino)-2H-pyran-6-carboxamide]	20 to 60
COc1c(N2CCCS2(=O)=O)cc(C(=O)Nc2nnc(-n3nccc3C)s2)oc1=O [Compound 99, 4-(1,1-dioxidoisothiazolidin-2-yl)-3-methoxy-N-(5-(5-methyl-1H-pyrazol-1-yl)-1,3,4-thiadiazol-2-yl)-2-oxo-2H-pyran-6-carboxamide]	20 to 60
COc1c(N2CCC[C@@H]2CC#N)cc(C(=O)Nc2nnc(-n3nccc3C)s2)oc1=O [Compound 174, (R)-4-(2-(cyanomethyl)pyrrolidin-1-yl)-3-methoxy-N-(5-(5-methyl-1H-pyrazol-1-yl)-1,3,4-thiadiazol-2-yl)-2-oxo-2H-pyran-6-carboxamide]	20 to 60
COCCNc1cc(C(=O)Nc2nnc(-c3sccc3C#N)s2)oc(=O)c1OC [Compound 145, N-(5-(3-cyanothiophen-2-yl)-1,3,4-thiadiazol-2-yl)-3-methoxy-4-((2-methoxyethyl)amino)-2-oxo-2H-pyran-6-carboxamide]	≥ 200
COc1c(N[C@H]2CC[C@H]2O)cc(C(=O)Nc2nnc(-c3c(Cl)ccn3C)s2)oc1=O (single isomer, unassigned) [Compound 53]	< 5
COCC1(Nc2cc(C(=O)Nc3nnc(-n4nccc4C)s3)oc(=O)c2OC)CC1 [Compound 97, 3-methoxy-4-((1-(methoxymethyl)cyclopropyl)amino)-N-(5-(5-methyl-1H-pyrazol-1-yl)-1,3,4-thiadiazol-2-yl)-2-oxo-2H-pyran-6-carboxamide]	5 to 20
COc1c(N2CCCCC2=O)cc(C(=O)Nc2nnc(-n3nccc3C)s2)oc1=O [Compound 96]	< 5
